According to ChEMBL document CHEMBL1201862, “PubChem BioAssay data set” (2004):
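Compound exposure: 48 hours, 5 concentrations, 96-well plates. GI50 = concentration required for 50% inhibition of growth.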 Calls of active or inactive are those of the source. Cut-off read from the data, not from the text of the source: active = GI50 up to about 1.1 µM and inactive = higher.

Experiments:
Assay in all cases: NCI-60 cell line screen, 48 h
[1] = system: DMS-114
[2] = system: DMS-273
[3] = system: HOP-18
[4] = system: KM-20L2
[5] = system: LXFL 529
[6] = system: M19-MEL
[7] = system: SNB-78
[8] = system: XF498
[9] = system: RXF 631

Measured: GI50

CC1(C)OCC(C(O)C2OC(C)(C)OC2/C=N\O)O1 (configuration not stated)
inactive: [1] > 100 µM | [2] > 100 µM | [3] 37.5 µM | [4] > 100 µM | [5] > 100 µM | [6] > 100 µM | [7] > 100 µM | [8] > 100 µM

C[C@]12CCC(=O)C=C1CC[C@@H]1[C@@H]2[C@@H](O)C[C@@]2(C)[C@H]1CC[C@]2(O)C(=O)COC(=O)COCC(=O)O
inactive: [1] > 100 µM | [2] > 100 µM | [3] > 100 µM | [4] > 100 µM | [6] > 100 µM | [7] 20.9 µM | [8] > 100 µM

N#Cc1cnsc1
inactive: [1] > 100 µM | [2] > 100 µM | [3] > 100 µM | [4] > 100 µM | [5] > 100 µM | [6] > 100 µM | [9] > 100 µM | [7] > 100 µM | [8] > 100 µM

O=C(CCBr)N1CCN(C(=O)CCBr)CC1 [PIPOBROMAN]
inactive: [1] 50.6 µM | [2] 28.8 µM | [3] 121 µM | [4] 119 µM | [5] 71.6 µM | [6] 86.9 µM | [9] 55.1 µM | [7] 114 µM | [8] 66.7 µM

O=C(c1ccc2c3c(ccc(C(=O)C(F)(F)F)c13)CC2)C(F)(F)F
inactive: [1] 41.4 µM | [2] 27.9 µM | [3] 53.2 µM | [4] 35.2 µM | [5] 40.3 µM | [6] 35.5 µM | [7] > 100 µM | [8] 9.31 µM

O=C1CCC(c2nc3cc(Cl)ccc3o2)C(=O)N1 (configuration not stated)
inactive: [1] > 100 µM | [2] > 100 µM | [3] > 100 µM | [4] > 100 µM | [5] > 100 µM | [6] > 100 µM | [9] > 100 µM | [7] > 100 µM

CC1=CC(C)(C)N=C2SC(c3ccc(Cl)cc3)=NN12
inactive: [1] 23.5 µM | [2] 38 µM | [3] 21 µM | [4] 22.5 µM | [5] 32.4 µM | [6] 32 µM | [7] 59.2 µM | [8] 14.2 µM

CCCCCCCCSC(SCCCCCCCC)=C1C(=O)N(c2ccccc2)N=C1C
inactive: [1] 28.4 µM | [2] 49.4 µM | [3] 61.7 µM | [4] 55.7 µM | [5] 43.4 µM | [6] 37 µM | [9] > 100 µM | [7] > 100 µM

Sc1nnc(COc2ccc(Cl)cc2)o1
inactive: [1] > 100 µM | [2] > 100 µM | [3] > 100 µM | [4] > 100 µM | [5] > 100 µM | [6] > 100 µM | [9] > 100 µM | [7] > 100 µM

O=C(C#Cc1cnc(O)nc1O)c1ccccc1Cl
inactive: [1] 21.9 µM | [2] 19.1 µM | [3] 20 µM | [7] 24.8 µM

Cn1c(=O)nc2n(-c3ccc(O)cc3)c3ccccc3nc-2c1=O
inactive: [1] 22.5 µM | [2] 11.5 µM | [3] > 100 µM | [4] 64.3 µM | [5] > 100 µM | [6] 20 µM | [9] 63.5 µM | [7] > 100 µM | [8] 60 µM

Cc1c2ccncc2c(C)c2c1[nH]c1ccc(O)c(OCC(F)(F)F)c12
inactive: [1] 2.44 µM | [2] 1.79 µM | [4] 12.2 µM | [5] 5.12 µM | [7] 4.47 µM | [8] 12.6 µM

COC(=O)C(C(=O)C(=O)Nc1c(Cl)cc([N+](=O)[O-])cc1Cl)c1csc(-n2nc(C3=CCCCC3)cc2-c2ccccc2)n1 (configuration not stated)
inactive: [2] 74.5 µM | [3] 10.3 µM | [4] 29 µM | [5] 40.7 µM | [6] 52.7 µM | [9] 45.6 µM | [7] 40 µM

COC(=O)/C(=C1\OC(=O)C(c2ccc(Cl)cc2)=C1O)c1ccc(Cl)cc1
inactive: [1] 15.8 µM | [2] 13.2 µM | [3] 21 µM | [4] 28.6 µM | [5] 26.6 µM | [6] 22.1 µM | [7] 26.4 µM | [8] 16.9 µM

CC(=O)OCC1OC(n2cnc3c(I)nc(I)nc32)C(OC(C)=O)C1OC(C)=O (configuration not stated)
inactive: [1] 4.21 µM | [2] 6.84 µM | [4] 17.6 µM | [5] 13.4 µM | [6] 3.66 µM | [9] 15.5 µM | [8] 20.9 µM

N#CNC(=N)NC(=O)/C=C/C=C/c1ccc(Cl)cc1
inactive: [1] 84.5 µM | [2] > 100 µM | [3] > 100 µM | [4] > 100 µM | [5] 47.4 µM | [6] > 100 µM | [7] 55.1 µM

CCOC(=O)CCn1[nH]c(=O)c(Cl)c(Cl)c1=O
inactive: [1] > 100 µM | [2] > 100 µM | [3] > 100 µM | [4] > 100 µM | [5] > 100 µM | [6] > 100 µM | [9] > 100 µM | [7] > 100 µM | [8] > 100 µM

CC1CCC(C(C)C)C(O[C@@H]2OC(=O)C[C@@H]2Sc2ccccc2)C1 (some centres not stated)
inactive: [1] 19.5 µM | [2] 18.4 µM | [4] > 10 µM | [5] 19.1 µM | [6] 24 µM | [9] 21.2 µM | [7] 25.3 µM

COC(=O)C1CCC2(CC1)NC(=O)NC2=O (configuration not stated)
inactive: [1] > 100 µM | [2] > 100 µM | [3] > 100 µM | [4] > 100 µM | [5] > 100 µM | [6] > 100 µM | [9] > 100 µM | [7] > 100 µM | [8] > 100 µM

COc1cc(-c2cc(O)c3ccccc3n2)cc(OC)c1OC
inactive: [1] > 75 µM | [2] > 75 µM | [4] > 75 µM | [5] > 75 µM | [6] > 75 µM | [7] > 75 µM

CC(C)(CN1CCCCC1)C(=O)/C=C/c1ccccc1
inactive: [1] 14.4 µM | [2] 13.5 µM | [4] 10.3 µM | [5] 16.9 µM | [6] 18.9 µM | [9] 21.1 µM | [7] 22.5 µM | [8] 14.7 µM

CN(C)CCN(C)C(=O)c1cccc2cccc(C(=O)O)c12
inactive: [1] > 100 µM | [2] > 100 µM | [3] > 100 µM | [4] > 100 µM | [5] > 100 µM | [6] > 100 µM | [9] > 100 µM | [7] > 100 µM | [8] > 100 µM

CCC(C)(C)NC1=C(NC(C)=O)C(=O)c2ccccc2C1=O
inactive: [2] 53.5 µM | [4] > 75 µM | [5] 45.6 µM | [6] 13.3 µM | [7] 35.2 µM | [8] 14.4 µM

OCC1=CC(NC2CC(CO)C(O)C(O)C2O)C(O)C(O)C1O (configuration not stated)
inactive: [1] > 100 µM | [2] > 100 µM | [3] > 100 µM | [6] > 100 µM | [8] 64.9 µM

CC1(C)C2C=CC1C(=O)CC2 (configuration not stated)
inactive: [2] > 100 µM | [3] > 100 µM | [4] > 100 µM | [5] > 100 µM | [9] > 100 µM | [7] > 100 µM | [8] > 100 µM

CN(C)CCNc1ccc2nnn3c4ccc(O)cc4c(=O)c1c23
inactive: [1] 5.79 µM | [3] 21.3 µM | [4] 7.82 µM | [5] 3.01 µM | [7] 12.7 µM
